Measured values as given in patent US20110230476A1, “PI3 KINASE INHIBITORS AND USES THEREOF” (AVILA THERAPEUTICS, INC., priority 2009, published 2011).

Columns and labels:
PI3 kinase = experiment: Comparison of covalent and non-covalent inhibitors (Tables 18 and 19): prolonged PD, mechanism; settings: Table 19
Description: “A” designates ≦10 nM; “B” designates 10-100 nM; and “C” designates 100-1000 nM

PI3Kγ (p120γ) = biological target: T1, PI3Kγ (p120γ) (Homo sapiens, UniProt P48736); experiment: HTRF assay, potency against active PI3Kγ; assay type: biochemical; settings: [ATP]=50 μM, [di-C8-PIP2]=10 μM, 30 min pre-incubation, read-out: PI3Kγ Inhibition
T1 construct: purchased BPS Bioscience (San Diego, Calif.) or Millipore (Billerica, Mass.)
T1 sequence (P48736 whole entry): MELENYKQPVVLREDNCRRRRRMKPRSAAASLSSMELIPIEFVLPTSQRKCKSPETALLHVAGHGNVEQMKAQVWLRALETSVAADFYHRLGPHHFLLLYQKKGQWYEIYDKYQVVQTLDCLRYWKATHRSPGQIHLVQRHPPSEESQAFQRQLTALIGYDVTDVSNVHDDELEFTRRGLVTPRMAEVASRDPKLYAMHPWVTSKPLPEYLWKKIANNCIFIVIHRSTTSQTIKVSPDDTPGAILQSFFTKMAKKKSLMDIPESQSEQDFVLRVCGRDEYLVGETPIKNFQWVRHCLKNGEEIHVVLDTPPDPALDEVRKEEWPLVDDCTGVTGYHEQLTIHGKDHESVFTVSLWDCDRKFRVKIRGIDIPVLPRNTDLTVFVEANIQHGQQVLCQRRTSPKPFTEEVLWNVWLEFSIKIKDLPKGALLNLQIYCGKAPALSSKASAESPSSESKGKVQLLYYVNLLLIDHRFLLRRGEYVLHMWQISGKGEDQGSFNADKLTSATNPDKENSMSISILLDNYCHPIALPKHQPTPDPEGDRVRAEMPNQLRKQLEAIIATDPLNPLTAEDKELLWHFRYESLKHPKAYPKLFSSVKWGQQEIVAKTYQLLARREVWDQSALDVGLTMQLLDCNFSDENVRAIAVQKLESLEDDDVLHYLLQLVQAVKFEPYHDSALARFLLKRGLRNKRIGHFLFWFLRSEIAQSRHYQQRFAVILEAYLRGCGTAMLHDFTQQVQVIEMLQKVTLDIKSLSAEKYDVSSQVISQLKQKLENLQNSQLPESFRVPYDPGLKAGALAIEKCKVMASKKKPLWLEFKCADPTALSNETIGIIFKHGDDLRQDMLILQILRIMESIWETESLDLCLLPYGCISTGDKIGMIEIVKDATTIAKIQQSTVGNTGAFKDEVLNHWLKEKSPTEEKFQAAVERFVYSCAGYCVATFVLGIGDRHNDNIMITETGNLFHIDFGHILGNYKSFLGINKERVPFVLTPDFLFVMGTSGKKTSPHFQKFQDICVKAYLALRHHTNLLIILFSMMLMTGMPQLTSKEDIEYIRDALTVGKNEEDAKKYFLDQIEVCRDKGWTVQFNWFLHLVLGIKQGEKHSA
How it was run: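 End-point competition HTRF: enzyme (p110β/p85α 0.75 nM; p120γ 2-2.5 nM) with 10 μM di-C8-PIP2 pre-incubated 30 min at 25° C with compound, then 50 μM ATP added for 30-60 min at 25° C. Stopped, detected after 1 and 18 h; IC50 from variable-slope fit.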

SK-OV-3 cells = experiment: SK-OV-3 cell proliferation assay; assay type: cell-based; settings: Homo sapiens; SK-OV-3 proliferation, 72 hours, Cell Titer Glo
Description: SK-OV-3 Cell Proliferation Assay
For the SK-OV-3 proliferation Assay, 5000 cells per well were plated in Growth Media (DMEM, 10% FBS, 1% 1-glutamine, 1% penicillin/streptomycin) in 96 well plates. The following day, compounds were added to duplicate wells at concentrations of 10 uM and 3-fold dilutions down to 40 nM. The plates were returned to the incubator for 72 hours and then the assays were developed using Cell Titer Glo (Promega, Madison, Wis.) according to manufacturer's instructions.

IC50 (PI3Kγ (p120γ)) [nM]	EC50 (SK-OV-3 cells) [nM]	SMILES	Prolonged PD (PI3 kinase)
		CC(C)=CC(=O)CCC(=O)N1CCN(Cc2cc3nc(-c4cccc5[nH]ncc45)nc(N4CCOCC4)c3s2)CC1 [II-a-3, 1-(4-((2-(1H-indazol-4-yl)-4-morpholinothieno[3,2-d]pyrimidin-6-yl)methyl)piperazin-1-yl)-6-methylhept-5-ene-1,4-dione]	Yes
> 1000	100 to 1000	C/C=C/C(=O)CCC(=O)N1CCN(Cc2cc3nc(-c4cccc5[nH]ncc45)nc(N4CCOCC4)c3s2)CC1 [II-a-36, (E)-1-(4-((2-(1H-indazol-4-yl)-4-morpholinothieno[3,2-d]pyrimidin-6-yl)methyl)piperazin-1-yl)hept-5-ene-1,4-dione]	
